“Also recorded” adds a separate entry of the source.
Assays:
human Vα24 NKT cells = assay: Expansion of hVα24 NKT cells in 4-day cultures of fresh PBMC (anti-Vα24 / CD1d-αGalCer tetramer staining); format: cell-based; conditions: 100 ng/ml
Description: FIG. 3B depicts frequency of hVα24 NKT PBL, doubly-stained by anti-Vα24 and CD1d-αGalCer tetramers, in PBMC cultured for 4 days in the presence of 100 ng/ml αGalCer, iGb3, or medium alone, as indicated.
Lymphocyte preparation and flow cytometry. Lymphocyte preparations, CD1d-αGalCer tetramers, and flow cytometry staining were done according to standard protocols, e.g., those described in Zhou D et al., Science 303, 523-27 (2004), incorporated herein by reference in its entirety.
Chemically synthesized globotrihexosylceramide (Gb3, Gal α1,4 Gal β1,4 Glc β1,1 Cer) and isoglobotrihexosylceramide (iGb3, Gal α1,3 Gal β1,4 Glc β1,1 Cer) were tested for their ability to stimulate NKT cells in the presence of antigen-presenting cells.

human Vα24 NKT line = assay: Cytokine secretion by human Vα24 NKT line stimulated with glycolipid-pulsed antigen presenting cells (ELISA); format: cell-based; conditions: for stimulation of human Vα24 NKT cells: in the presence of antigen-presenting cells; for Th1 (IFNγ) cytokine secretion by polyclonal human NKT line / Th2 (IL4) cytokine secretion by polyclonal human NKT line: 100 ng/ml in FIG. 3C right panel
Description: FIG. 3C left panel depicts IFN-γ production by a human Vα24 NKT line stimulated with a range of concentrations of iGb3 and αGalCer in the presence of irradiated PBMC as CD1d-expressing antigen presenting cells. The right panel depicts IFN-γ vs. IL-4 production by the human Vα24 NKT line in response to irradiated PBMC and 100 ng/ml of iGb3 of synthetic, purified and enzymatic origin, vs. 100 ng/ml of αGalCer, Gb3 or LacCer, as indicated.
(§1) CD1d-restricted T cell responses. Antigen presenting cells were mouse spleen cells cultured at 5×10^5 cells/well, mouse bone marrow-derived dendritic cells generated in the presence of GMC-SF and IL4, activated overnight with 10 ng/ml TNF-α and cultured at 5×10^4 cells/well, and human PBMC or GM-CSF/IL-4 cultured PBMC-derived dendritic cells cultured at 2.5×10^5 cells/well. NKT hybridomas were cultured at 5×10^4 cells/well and the human NKT line was cultured at 2.5×10^5 cells/well. Cytokines released in the culture supernatant were measured by standard ELISA for human IL-4 and IFN-γ (Pharmingen-Becton Dickinson, CA), and the indicator CTLL IL2 bioassay for mouse hybridomas. NKT hybridomas DN32.D3 (Vα14^+), TCBII (Vα14^−), TBA7 (Vα14^−) and the rat basophil leukemia RBL.CD1d transfectant line were used as described in Park, S-H et al., J. Immunol. 160 3128-34 (1998), incorporated herein by reference in its entirety. The human polyclonal Vα24Vβ11 NKT line was derived by repeated αGalCer stimulation of healthy human PBL in vitro and maintained by PHA and IL2 restimulation, and two different subclones, CD4 and DN, were used in experiments. Griffonia Simplicifolia isolectin B4 (IB4) was from Vector Laboratories, and anti-human CD1d mAb 51 was obtained from Dr. S. Porcelli. For stimulation with synthetic glycolipids, APCs were pulsed for 6 hours with various concentrations of lipids (from stock solution in DMSO), washed and incubated with NKT cell hybridoma or cell lines for 18-24 hours.

[1] = tested on: mouse Vα14 hybridoma DN32.D3; assay: Stimulation of mouse Vα14 NKT hybridomas by glycolipids with bone marrow-derived dendritic cells (CTLL IL2 bioassay); format: cell-based; conditions: for presentation to DN32.D3 by Hexb−/− cells: bone marrow-derived DC from Hexb−/− mice; for stimulation of mouse Vα14 NKT cells: in the presence of antigen-presenting cells
Description: FIG. 4A depicts stimulation of mouse Vα14 hybridoma DN32.D3 by iGb3 and iGb4 with bone marrow-derived DC as CD1d-expressing antigen-presenting cells from Hexb^−/−, Hexb^−/− and CD1-TD mice, as indicated.
as §1

non-Vα14 hybridomas = assay: Stimulation of non-Vα14 hybridomas by glycolipid presented by bone marrow-derived dendritic cells; format: cell-based, mouse; conditions: not shown
Description: as §1, with “For stimulation with synthetic glycolipids, APCs were pulsed for 6 hours with various concentrations of lipids (from stock solution in DMSO), washed and incubated with NKT cell hybridoma or cell lines for 18-24 hours.” left out

[2] = target: T1, mCD1d-GT (mouse CD1d preloaded with GT1b) (Mus musculus, UniProt P11609); assay: CD1d lipid loading in the presence of saposin B, visualized by isoelectrofocusing; format: binding; conditions: cell-free; for replacement of GT1b preloaded onto CD1d: 2 μM mCD1d-GT, 25 μM isogloboside, with or without 5 μM saposin B
T1 construct: made in house; host or cells: fly expression system
T1 sequence (P11609 19-297 limits assumed): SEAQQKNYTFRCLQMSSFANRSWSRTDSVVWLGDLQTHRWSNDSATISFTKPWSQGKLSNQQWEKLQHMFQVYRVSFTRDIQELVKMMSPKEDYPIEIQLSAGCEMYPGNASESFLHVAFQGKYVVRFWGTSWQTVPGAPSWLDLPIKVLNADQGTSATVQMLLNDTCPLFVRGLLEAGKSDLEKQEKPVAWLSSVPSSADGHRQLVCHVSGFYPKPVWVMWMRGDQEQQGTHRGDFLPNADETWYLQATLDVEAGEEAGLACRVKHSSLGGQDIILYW
T1 sequence (P01887 21-119 partner): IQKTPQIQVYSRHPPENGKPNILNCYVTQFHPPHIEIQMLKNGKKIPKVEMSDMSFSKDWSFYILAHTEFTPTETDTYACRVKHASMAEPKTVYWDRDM
Text: (§2) FIG. 4C left panel depicts in vitro loading of iGb3 and iGb4 onto recombinant CD1d in the presence of saposin B, visualized by isoelectrofocusing.
(§3) CD1d lipid loading and cell-free presentation assay. Purified complexes of CD1 d-GT were made and exchange of lipid in these complexes was quantified from isoelectric focusing gels as previously described by Cantu C III, et al., J. Immunol. 170, 4673-82 (2003), incorporated herein by reference in its entirety. Saposin-mediated loading of lipid was performed with recombinant human saposin B as described in Zhou D et al., Science 303, 523-27 (2004), incorporated herein by reference in its entirety, and with mouse saposin B. Recombinant mouse saposin B was expressed in a fly expression system and purified in the same manner used for production of mouse CD1d, described in Benlagha K, et al., J. Exp. Med 191, 1895-1903 (2000), incorporated herein by reference in its entirety. […] Stimulation of the NKT cell hybridoma DN32.D3 was measured. Briefly, mouse CD1d protein was coated for 24 h at 1 μg/well in phosphate-buffered saline (PBS) on 96-well plates. Plates were washed three times with PBS and then incubated for another 24 h with a constant lipid concentration of 6 μg/ml and various concentrations of mouse saposin B. Plates were washed three times with PBS; then 2×10^4 hybridoma cells were added. Supernatants were collected after 24 h to measure IL-2 release.

[3] = tested on: NKT cell hybridoma DN32.D3; assay: Cell-free presentation to DN32.D3 by plate-bound CD1d in the presence of saposin B (IL-2 release); format: cell-based, mouse; conditions: lipid 6 μg/ml
Text: as §2
as §3, with “Supernatants were collected after 24 h to measure IL-2 release.” left out

hVα24 NKT line = assay: Inhibition of the response of the hVα24 NKT line to PBMC-derived dendritic cells (GMCSF release, ELISA); format: cell-based, human; conditions: PBMC-derived dendritic cells plus exogenous ligand
Description: as §1, with “Cytokines released in the culture supernatant were measured by standard ELISA for human IL-4 and IFN-γ (Pharmingen-Becton Dickinson, CA), and the indicator CTLL IL2 bioassay for mouse hybridomas.” left out

Vα14 DN32.D3 hybridoma = Vα14 DN32.D3 hybridoma stimulation by spleen cells pulsed with αGalCer variants; format: cell-based, mouse
Text: FIG. 2B depicts Vα14 DN32.D3 hybridoma stimulation responses to spleen cells from Hexb^−/− (o) and Hexb^−/− littermates (●), αGalAl-(▪) and CD1-TD knock-in (▴) mice. Spleen cells were pulsed with αGalCer variants as indicated prior to hybridoma stimulation. The data are representative of 2 separate experiments.
as §1, with “hours. […]” for “hours.”

[4] = presented by irradiated PBMC, listed as Synthetic iGb3
[5] = presented by irradiated PBMC, listed as iGb3 produced in vitro by action of iGb3 synthase
[6] = presented by irradiated PBMC, listed as natural iGb3 purified from cat intestine

loading onto mCD1d-GT by mouse versus human saposin B [2]	Compound	stimulation and expansion of human NKT cells (frequency of hVα24 NKT PBL) (human Vα24 NKT cells)	stimulation of human Vα24 NKT cells (human Vα24 NKT line)	presentation to DN32.D3 by Hexb−/− cells [1]	stimulation of mouse Vα14 NKT cells [1]	replacement of GT1b preloaded onto CD1d [2]	direct stimulation of Vα14 NKT cells by CD1d/lipid complexes [3]	presentation to DN32.D3 by α-Galactosidase A (αGalA)−/− cells (Vα14 DN32.D3 hybridoma)	also measured
equally loaded	CCCCCCCCCCCCC/C=C/[C@@H](O)[C@H](CO[C@@H]1O[C@H](CO)[C@@H](O[C@@H]2O[C@H](CO)[C@H](O)[C@H](O[C@H]3O[C@H](CO)[C@H](O)[C@H](O)[C@H]3O)[C@H]2O)[C@H](O)[C@H]1O)NC(=O)CCCCCCCCCCCCCCCCCCCCCCCCC [iGb3, isoglobotrihexosylceramide]	selectively stimulated and expanded	potent stimulator	presented	potent stimulator	partial replacement; also recorded: required saposin B	directly stimulated		Th1 (IFNγ) cytokine secretion by polyclonal human NKT line (human Vα24 NKT line; [4]): stimulated potent; Th2 (IL4) cytokine secretion by polyclonal human NKT line (human Vα24 NKT line; [4]): stimulated potent; Th1 (IFNγ) cytokine secretion by polyclonal human NKT line (human Vα24 NKT line; [5]): levels comparable to αGalCer; Th2 (IL4) cytokine secretion by polyclonal human NKT line (human Vα24 NKT line; [5]): levels comparable to αGalCer; Th1 (IFNγ) cytokine secretion by polyclonal human NKT line (human Vα24 NKT line; [6]): levels comparable to αGalCer; Th2 (IL4) cytokine secretion by polyclonal human NKT line (human Vα24 NKT line; [6]): levels comparable to αGalCer; cloned CD4 and DN human NKT lines showing cytokine secretion (human Vα24 NKT line; presented by irradiated PBMC, lines responding/tested, not shown): 2/2; other individual mVα14 hybridomas stimulated ([1]; bone marrow-derived dendritic cells, hybridomas responding/tested, not shown): 5/5; stimulation of mVα14 NKT cell hybridoma DN32.D3 ([1]; presented by CD1d-expressing bone marrow-derived dendritic cells): stimulated; stimulation of non-Vα14 hybridomas (non-Vα14 hybridomas): failed to stimulate 3/3
equally loaded	CCCCCCCCCCCCC/C=C/[C@@H](O)[C@H](COC1OC(CO)C(OC2OC(CO)C(O)C(OC3OC(CO)C(O)C(OC4OC(CO)C(O)C(O)C4NC(C)=O)C3O)C2O)C(O)C1O)NC(=O)CCCCCCCCCCCCCCCCCCCCCCCCC (stereo partly shown) [iGb4]		stimulatory	failed to present	stimulatory	partial replacement; also recorded: required saposin B	very weak response		
	CCCCCCCCCCCCCCCCCCCCCCCCCC(=O)N[C@@H](CO[C@H]1O[C@H](CO)[C@H](O)[C@H](O)[C@H]1O)[C@H](O)[C@H](O)CCCCCCCCCCCCCC [αGalCer, α-galactosylceramide, reference compound]	selectively stimulated and expanded							GMCSF release in the supernatant, control without lectin (hVα24 NKT line): 939 pg/mL
	Gal α1,2 Gal αCer							selective defect	
	Gal α1,4 Gal αCer							selective defect	
	GalNAc β1,4 Gal αCer								presentation to DN32.D3 by Hexb−/− cells (Vα14 DN32.D3 hybridoma): selective defect

Reference: patent US7998739B2, “Methods of activating NKT cells” (The Scipps Research Institute, priority 2004, dated 2011)
